Test results published in patent US7820629B2, “Galactose derivative, drug carrier and medicinal composition” (Nippon Shinyaku Co., Ltd., priority 2006, dated 2010).

Test system: HuH-7 cells (human hepatoma cell line)
Experiment: Evaluation of liver-targeting: uptake of tritium-labeled siRNA composition
Assay type: cell-based
Details: carriers of Examples 2 to 6 or Comparative Example 1 with tritium-labeled siRNA 100 nM, eight hours, by content (mg) of the Example 1 derivative
Experimental: (1) Preparation of a Nucleic Acid Solution
A nucleic acid solution containing a tritium-labeled siRNA composed of an oligo RNA having a sequence of SEQ ID NO 1 and an oligo RNA having a sequence of SEQ ID NO 2 was prepared by introducing tritium-labeled [2,5′,8-3H]adenosine 5′-triphosphate ammonium salt (manufactured by Amersham Bioscience), using in-vitro Transcription T7 Kit (manufactured by Takara Bio). The siRNA concentration in the nucleic acid solution was 20 μM. The specific activity was 6.4×10^5 dpm/μg.
341.25 μL of a nucleic acid solution containing 20 μM of a tritium-unlabeled siRNA composed of an oligo RNA having a sequence of SEQ ID NO 1 and an oligo RNA having a sequence of SEQ ID NO 2 was added to 8.75 μL of the nucleic acid solution prepared in the above step, thereby preparing a nucleic acid solution having a specific activity of 1.6×10^4 dpm/μg.
(2) Preparation of a Composition […]
HuH-7 cells (human hepatoma cell line) were seeded on a 6-well plate at 2.5×10^5 cells/well, and were incubated for 18 hours at 37° C. under 5% CO2. […] 4 mL of a liquid scintillation cocktail (Emulsifier Scintillator Plus, manufactured by Perkin Elmer) was added to each of the vials and mixed well, and the radioactivity was counted with a liquid scintillation counter (manufactured by Perkin Elmer).

## N-[1-(D)-deoxylactito-1-yl]oleamide [Example 1]
  liver-targeting potency (radioactivity of cells, FIG. 1): increases depending on the content
